According to patent US20050192240A1, “Methods and compositions relating to expression factors” (priority 2004, published 2005):
Values after ≈ are worked out from the molar mass of the structure shown. Read-outs that look alike come from different tables or passages of the source.

Key:
Type in all cases: cell-based
C. albicans [1] = test: Etest antifungal strip susceptibility of C. albicans strains
Protocol: The three C. albicans strains SC5314 (wild type), YLO133 (homozygous mutant Candt80/Candt80) and YLO137 (rescued strain of YLO133 with one copy of CaNDT80), were also tested for susceptibility to five different drugs using the Etest. Five different antifungal strips (AB BIODISK, Solna, Sweden) were used: amphotericin B at 0.002-32 μg/ml (AP), 5-fluorocytosine at 0.002-32 μg/ml (FC), fluconazole at 0.016-256 μg/ml (FL), itraconazole at 0.002-32 μg/ml (IT) and ketoconazole at 0.002-32 μg/ml (KE). Each strain was grown overnight on an SD plate and homogenized colonies from the plate were transferred into 0.85% NaCl to achieve a suspension of about 5×10^6 cells/ml. A sterile swab was dipped into the inoculum suspension and the entire agar surface of a SD plate was evenly streaked. Each plate was dried until excess moisture was completely absorbed and each of the five different Etest strips were applied onto each plate. The plates were incubated at 30° C. and were photographed after 2 days of growth. Susceptibility to a drug is indicated by a clear inhibition zone around the antifungal strip where growth has been inhibited. Degree of susceptibility is indicated by the size of the ring.

C. albicans [2] = test: Agar dilution assay of C. albicans strains; details: Candt80/Candt80 mutant versus wild-type or rescued strain; fluconazole 25 μg/ml, voriconazole 1 μg/ml
Protocol: The cdr1/cdr1 homozygous mutant was constructed according to Sanglard et al., Antimicrob. Agents Chemother. 40:2300-2305, 1996. Fluconazole and voriconazole were prepared to a final concentration of 25 μg/ml and 1 μg/ml, respectively in dimethylsulfoxide (DMSO). C. albicans cells grown on media containing DMSO and in the absence of drug, was used as the control. C. albicans cells were diluted to an OD600 of 2 (corresponding to approximately 2×10^7cells/ml) and 0.5 μl was spotted onto plates containing either fluconazole (25 μg/ml) or voriconazole (1 μg/ml) using a replica device (Oxoid Inc., Canada). Cells were also prepared and spotted in 10-fold serial dilutions (10^4 to 10 cells).

S. cerevisiae = test: Etest antifungal strip susceptibility of S. cerevisiae strains; details: for MIC: Saccharomyces cerevisiae, SD plate, 30° C., read-out: minimum inhibitory concentration (MIC)
Description: The effect on drug susceptibility by overexpression of CaNdt80p and its S. cerevisiae homolog, Ndt80p, were compared using the antifungal strips, Etest (AB BIODISK, Solna, Sweden) (Arendrup et al., J. Antimicrob. Chemother. 47:521-526, 2001; Chang et al., J. Clin. Microbiol 39:1328-1333, 2001). S. cerevisiae Ndt80p was identified as a meiosis specific transcription factor (Chu et al., Science 282:699-705, 1998; Chu and Herskowitz, Mol. Cell 1:685-696, 1998). Ndt80p is autoregulated and activates its targets through a mid-sporulation element consensus site (MSE: gNCRCAAAA/T) in the target (Chu and Herskowitz, Mol. Cell 1:685-696, 1998). Expression of the NDT80 gene is repressed during vegetative growth (Xu et al., Mol. Cell Biol. 15:6572-6581, 1995; Pak and Segall, Mol. Cell Biol. 22:6417-6429, 2002).
First, homogenized isolated colonies from an overnight SD plate were transferred into a 0.85% NaCl solution to achieve a suspension containing 5×10^6 cells/ml. A sterile swab was dipped into the inoculum suspension and the entire agar surface of an SD plate was streaked evenly with the swab. The plates were allowed to dry until all excess moisture was completely absorbed, and the Etest strips (AB BIODISK, Solna, Sweden) were applied onto each plate. The plates were incubated at 30° C. and were photographed after 3 days of growth. These Etest strips tested the susceptibility to ketoconazole (0.002-32 μg/ml) (KE) and fluconazole (0.016-256 μg/ml) (FL). Susceptibility is indicated by a clear ring around the antifungal strips where growth has been inhibited. Degree of susceptibility is indicated by the size of the ring. The strains tested were the NDT80/NDT80 wild type S. cerevisiae strain transformed with the control vectors 2μ-URA3and CEN-LEU2 (Christianson et al., Gene 110:119-122, 1992; Sikorski and Hieter, Genetics 122:19-27, 1989) (designated as strain SLO16) (“NDT80/NDT80” lane in FIG. 6); a ndt80/ndt80 homozygous mutant transformed with the control 2μ-URA3 vector (designated as strain SLO14) (“ndt80/ndt80 2μ vector” lane in FIG. 6); a ndt80/ndt80 homozygous mutant transformed with the 2μ-URA3-NDT80 plasmid, LOB46 (designated as strain SLO13) (“ndt80/ndt80 2μ NDT80” lane in FIG. 6); and a ndt80/ndt80 homozygous mutant transformed with the 2μ-URA3-CaNDT80 plasmid, LOB44 (designated as strain SLO15) (“ndt80/ndt80 2μ CaNDT80” lane in FIG. 6).
In a separate experiment, a strain harboring the LOB44 plasmid without the NDT80 gene was tested in the Etest.

C. albicans [3] = test: RT-PCR of CDR1 and CaNDT80 mRNA with or without miconazole; details: miconazole 100 μg/ml, one hour, 30° C.; strains SC5314, YLO133, YLO137
Protocol: C. albicans strains SC5314 (wild type), YLO133 (homozygous mutant Candt80/Candt80) and YLO137 (rescued strain of YLO133 with one copy of CaNDT80), were grown in the presence or absence of the antifungal agent, miconazole (Sigma) at 100 μg/ml for one hour at 30° C. The level of mRNAs of TEF3 (control), CDR1, and CaNDT80, was measured by reverse transcriptase polymerase chain reaction (RT-PCR). […] Lanes 2-4 and 11-13 represent mRNA from YLO133 (homozygous mutant), lanes 5-7 and 14-16 represent mRNA from YLO137 (rescued mutant), and lanes 8-10 and 17-19 represent mRNA from the wild-type strain, SC5314. Lanes 2, 5, 8, 11, 14, and 17 were tested for TEF3 mRNA (internal control); lanes 3, 6, 9, 12, 15, and 18, were tested for CDR1 mRNA; and lanes 4, 7, 10, 13, 16, and 19 were tested for CaNDT80 mRNA. As expected, no CaNDT80 mRNA was detected in the homozygous mutant (FIG. 9, lanes […] and 13). In contrast, CaNDT80 mRNA was detected in the wild-type strain during vegetative growth (FIG. 9, lanes 10 and 19), unlike its homolog NDT80 in S. cerevisiae.

[4] = homozygous mutant Candt80/Candt80 (YLO133) compared with wild type SC5314, 2 days
[5] = S. cerevisiae overexpressing CaNDT80 (LOB44 plasmid)
[6] = S. cerevisiae transformed with control vector

SMILES: Nc1nc(=O)[nH]cc1F [5-fluorocytosine]
- drug susceptibility (inhibition zone) (C. albicans [1]; [4]): increased susceptibility

SMILES: OC(Cn1cncn1)(Cn1cncn1)c1ccc(F)cc1F [fluconazole]
- susceptibility (growth on drug plates) (C. albicans [2]): more susceptible
- MIC (S. cerevisiae; [5]): 64 µg/mL (≈ 209 µM)
- MIC (S. cerevisiae; [6]): 24 µg/mL (≈ 78.4 µM)
- drug susceptibility (inhibition zone) (C. albicans [1]; [4]): increased susceptibility
- drug susceptibility (inhibition zone) (C. albicans [1]; rescued strain YLO137 (one copy of CaNDT80) compared with wild type SC5314, 2 days): more susceptible

SMILES: CC(=O)N1CCN(c2ccc(OCC3COC(Cn4ccnc4)(c4ccc(Cl)cc4Cl)O3)cc2)CC1 (stereo not drawn) [ketoconazole]
- MIC (S. cerevisiae; [5]): ≥ 32 µg/mL
- MIC (S. cerevisiae; [6]): 6 µg/mL (≈ 11.3 µM)
- drug susceptibility (inhibition zone) (S. cerevisiae; ndt80/ndt80 2μ CaNDT80 compared with NDT80/NDT80 S. cerevisiae, 3 days): decreased
- drug susceptibility (inhibition zone) (C. albicans [1]; [4]): increased susceptibility

SMILES: Clc1ccc(COC(Cn2ccnc2)c2ccc(Cl)cc2Cl)c(Cl)c1 (stereo not drawn) [miconazole]
- patterns of TEF3, CDR1 and CaNDT80 mRNA with versus without treatment (C. albicans [3]): comparable

SMILES: C[C@@H](c1ncncc1F)[C@](O)(Cn1cncn1)c1ccc(F)cc1F [voriconazole]
- susceptibility (growth on drug plates) (C. albicans [2]): more susceptible
